Where “and” joins values, the source holds several entries; their conditions need not be identical. Equal values may be shown once.
How the values were obtained:
Type in all cases: in vivo
[1] = test system: Canada horseweed (ERICA, Erigeron canadensis); assay: Greenhouse postemergence trial, visual injury on Canada horseweed; settings: Table 19
Source text: (§1) Greenhouse Trial Methodology—Evaluation of Postemergence Herbicidal Safening in Crops
(§2) Seeds of the desired test plant species were planted in a 90:10% v/v (volume/volume) mixture of PRO-MIX® BX (Premier Tech Horticulture, Quakertown, PA, USA) and PROFILE® GREENS GRADE™ (Profile Products LLC, Buffalo Grove, IL, USA) planting mixture, which typically has a pH of 5.2 to 6.2 and an organic matter content of at least 50 percent, in plastic pots with a surface area of 103.2 square centimeters (cm^2). When required to ensure good germination and healthy plants, a fungicide treatment and/or other chemical or physical treatment was applied. The plants were grown for 7-36 days (d) in a greenhouse with an approximate 14-hour (h) photoperiod which was maintained at about 23° C. during the day and 22° C. during the night. Nutrients and water were added on a regular basis and supplemental lighting was provided with overhead metal halide 1000-Watt lamps as necessary. The plants were employed for testing when they reached the second or third true leaf stage.
(§3) Emulsifiable concentrates of each of each pyridine carboxylate herbicide (Compound A or Compound B) were prepared at 100 grams acid equivalent per liter (g ae/L). An aliquot of each emulsifiable concentrate was placed in a 25 mL glass vial and diluted with an aqueous mixture of 1.25% (v/v) ACTIROB® B esterified rapeseed oil (Bayer Crop Science, Research Triangle Park, NC, USA) or MSO® Concentrate with LECI-TECH® methylated soybean oil (Loveland Products, Loveland, CO, USA) to obtain concentrated stock solutions at the highest application rate for each herbicide, based upon a 12 milliliter (mL) application volume at a rate of 187 liters per hectare (L/ha). The concentrated stock solutions were further diluted with an aqueous mixture of 1.25% v/v ACTIROB® B or MSO® Concentrate with LECI-TECH® to obtain stock solutions at reduced application rates for each herbicide. Spray solutions of the herbicide combinations (Compound A or Compound B plus safener) were prepared by adding weighed amounts or aliquots of the safener to the stock solutions of Compound A or Compound B to form 12-mL spray solutions in two-way combinations. […]
(§4) The treated plants and control plants were placed in a greenhouse as described above and watered by sub-irrigation to prevent wash-off of the test compounds. After 20-22 d, the condition of the test plants as compared with that of the control plants was determined visually and scored on a scale of 0 to 100 percent where 0 corresponds to no injury and 100 corresponds to complete kill.

[2] = test system: Matricaria inodora (false chamomile), MATIN; assay: Greenhouse postemergence trial, visual injury on false chamomile
Source text: as §1, §2
(§5) Emulsifiable concentrates of each of each pyridine carboxylate herbicide (Compound A or Compound B) were prepared at 100 grams acid equivalent per liter (g ae/L). An aliquot of each emulsifiable concentrate was placed in a 25 mL glass vial and diluted with an aqueous mixture of 1.25% (v/v) ACTIROB® B esterified rapeseed oil (Bayer Crop Science, Research Triangle Park, NC, USA) or MSO® Concentrate with LECI-TECH® methylated soybean oil (Loveland Products, Loveland, CO, USA) to obtain concentrated stock solutions at the highest application rate for each herbicide, based upon a 12 milliliter (mL) application volume at a rate of 187 liters per hectare (L/ha). The concentrated stock solutions were further diluted with an aqueous mixture of 1.25% v/v ACTIROB® B or MSO® Concentrate with LECI-TECH® to obtain stock solutions at reduced application rates for each herbicide. Spray solutions of the herbicide combinations (Compound A or Compound B plus safener) were prepared by adding weighed amounts or aliquots of the safener to the stock solutions of Compound A or Compound B to form 12-mL spray solutions in two-way combinations.
(§6) The spray solutions were applied to the plant material with an overhead Mandel track sprayer equipped with 8002E nozzles calibrated to deliver 187 L/ha over an application area of 0.503 square meters (m^2) at a spray height of 18 inches (43 centimeters (cm)) above the average plant canopy. Control plants were sprayed in the same manner with the solvent blank. All herbicide (component a) application rates are given as “g ae/ha” and all safener (component b) application rates are given as “g ai/ha.”
as §4

[3] = test system: Polygonum convulvus (wild buckwheat), POLCO; assay: Greenhouse postemergence trial, visual injury on wild buckwheat
Source text: as §1, §2, §5, §6, §4

[4] = test system: wild pansy (VIOTR, Viola tricolor); assay: Greenhouse postemergence trial, visual injury on wild pansy; settings: Table 19
Source text: as §1, §2, §3, §4

[5] = test system: Chinese sprangletop (LEFCH, Leptochloa chinensis); assay: Greenhouse postemergence trial, visual injury on Chinese sprangletop; settings: Table 19
Source text: as §1, §2, §3, §4

[6] = test system: large crabgrass (DIGSA, Digitaria sanguinalis); assay: Greenhouse postemergence trial, visual injury on large crabgrass; settings: Table 19
Source text: as §1, §2, §3, §4

[7] = test system: pigweed (AMARE, Amaranthus retroflexus); assay: Greenhouse postemergence trial, visual injury on pigweed
Source text: as §1, §2, §5, §6, §4

[8] = test system: common sunflower (HELAN, Helianthus annuus); assay: Greenhouse postemergence trial, visual injury on common sunflower
Source text: as §1, §2, §5, §6, §4

[9] = test system: Triticum aestivum (spring wheat), TRZAS; assay: Greenhouse postemergence safening trial, visual injury on spring wheat
Procedure: (§7) Greenhouse Trial Methodology-Evaluation of Postemergence Herbicidal […] in Crops […] When required to ensure good germination and healthy plants, a fungicide treatment and/or other chemical or physical treatment was applied. The plants were grown for 7-36 days (d) in a greenhouse with an approximate 14-hour (h) photoperiod which was maintained at about 23° C. during the day and 22° C. during the night. Nutrients and water were added on a regular basis and supplemental lighting was provided with overhead metal halide 1000-Watt lamps as necessary. The plants were employed for testing when they reached the second or third true leaf stage. Emulsifiable concentrates of each of each pyridine carboxylate herbicide (Compound A or Compound B) were prepared at 100 grams acid equivalent per liter (g ae/L). […] The concentrated stock solutions were further diluted with an aqueous mixture of 1.25% […] or MSO® Concentrate with LECI-TECH® to obtain stock solutions at reduced application rates for each herbicide. Spray solutions of the herbicide combinations (Compound A or Compound B plus safener) were prepared by adding weighed amounts or aliquots of the safener to the stock solutions of Compound A or Compound B to form 12-mL spray solutions in two-way combinations. […] Control plants were sprayed in the same manner with the solvent blank. All herbicide (component a) application rates are given as “g ae/ha” and all safener (component b) application rates are given as “g ai/ha.” The treated plants and control plants were placed in a greenhouse as described above and watered by sub-irrigation to prevent wash-off of the test compounds.

[10] = test system: Sinapis arvensis (wild mustard), SINAR; assay: Greenhouse postemergence trial, visual injury on wild mustard
Source text: as §1, §2, §5, §6, §4

[11] = test system: Triticum aestivum (durum wheat), TRZDU; assay: Greenhouse postemergence safening trial, visual injury on durum wheat
Procedure: as §7

[12] = CQC-mexyl 10 g/ha alone, Table 16
[13] = CQC-mexyl 20 g/ha alone, Table 16
[14] = CQC-mexyl 40 g/ha alone, Table 16
[15] = CQC-mexyl 80 g/ha alone, Table 16
[16] = CQC-mexyl 20 g/ha alone, Table 19
[17] = CQC-mexyl 40 g/ha alone, Table 19
[18] = CQC-mexyl 80 g/ha alone, Table 19
[19] = CQC-mexyl 20 g/ha alone, Table 17
[20] = CQC-mexyl 40 g/ha alone, Table 17
[21] = CQC-mexyl 80 g/ha alone, Table 17
[22] = CQC-mexyl 120 g/ha alone, Table 17
[23] = CQC-mexyl 40 g/ha alone, Table 14
[24] = Compound A 40 g/ha alone, Table 16
[25] = Compound A 20 g/ha alone, Table 19
[26] = Compound A 40 g/ha alone, Table 17
[27] = Compound A 40 g/ha alone, Table 18
[28] = Compound A 40 g/ha alone, Table 14

Compound: CCCCCC(C)OC(=O)COc1ccc(Cl)c2cccnc12 (stereo not shown) [CQC-mexyl, cloquintocet-mexyl]
- % visual injury, Ob ([1]; CQC-mexyl 20 g/ha alone): 0%
- % visual injury, Ob ([1]; CQC-mexyl 40 g/ha alone): 0%
- % visual injury, Ob ([1]; CQC-mexyl 80 g/ha alone): 0%
- % visual injury, Ob [2, 12]: 0%
- % visual injury, Ob [2, 13]: 0%
- % visual injury, Ob [2, 14]: 0%
- % visual injury, Ob [2, 15]: 0%
- % visual injury, Ob [3, 16]: 0%
- % visual injury, Ob [3, 17]: 0%
- % visual injury, Ob [3, 18]: 0%
- % visual injury, Ob ([3]; safener alone 5 g/ha): 0%
- % visual injury, Ob ([3]; safener alone 10 g/ha): 0%
- % visual injury, Ob ([3]; safener alone 20 g/ha): 0%
- % visual injury, Ob ([3]; safener alone 40 g/ha): 0%
- % visual injury, Ob ([4]; CQC-mexyl 20 g/ha alone): 0%
- % visual injury, Ob ([4]; CQC-mexyl 40 g/ha alone): 0%
- % visual injury, Ob ([4]; CQC-mexyl 80 g/ha alone): 0%
- % visual injury, Ob ([5]; CQC-mexyl 20 g/ha alone): 0%
- % visual injury, Ob ([5]; CQC-mexyl 40 g/ha alone): 0%
- % visual injury, Ob ([5]; CQC-mexyl 80 g/ha alone): 0%
- % visual injury, Ob ([6]; CQC-mexyl 20 g/ha alone): 0%
- % visual injury, Ob ([6]; CQC-mexyl 40 g/ha alone): 0%
- % visual injury, Ob ([6]; CQC-mexyl 80 g/ha alone): 0%
- % visual injury, Ob [7, 19]: 0%
- % visual injury, Ob [7, 16]: 0%
- % visual injury, Ob [7, 20]: 0%
- % visual injury, Ob [7, 17]: 0%
- % visual injury, Ob [7, 21]: 0%
- % visual injury, Ob [7, 18]: 0%
- % visual injury, Ob [7, 22]: 0%
- % visual injury, Ob [8, 19]: 0%
- % visual injury, Ob [8, 16]: 0%
- % visual injury, Ob [8, 20]: 0%
- % visual injury, Ob [8, 17]: 0%
- % visual injury, Ob [8, 21]: 0%
- % visual injury, Ob [8, 18]: 0%
- % visual injury, Ob [8, 22]: 0%
- % visual injury, Ob ([9]; CQC-mexyl 5 g/ha alone, Table 15): 0%
- % visual injury, Ob ([9]; CQC-mexyl 10 g/ha alone, Table 15): 0%
- % visual injury, Ob [9, 12]: 0%
- % visual injury, Ob ([9]; CQC-mexyl 20 g/ha alone, Table 15): 0%
- % visual injury, Ob [9, 13]: 0%
- % visual injury, Ob [9, 23]: 0%
- % visual injury, Ob ([9]; CQC-mexyl 40 g/ha alone, Table 15): 0%
- % visual injury, Ob [9, 14]: 0%
- % visual injury, Ob [9, 15]: 0%
- % visual injury, Ob ([9]; safener alone 5 g/ha): 0%
- % visual injury, Ob ([9]; safener alone 10 g/ha): 0%
- % visual injury, Ob ([9]; safener alone 20 g/ha): 0%
- % visual injury, Ob ([9]; safener alone 40 g/ha): 0%
- % visual injury, Ob [10, 12]: 0%
- % visual injury, Ob [10, 13]: 0%
- % visual injury, Ob [10, 14]: 0%
- % visual injury, Ob [10, 15]: 0%
- % visual injury, Ob ([10]; safener alone 5 g/ha): 0%
- % visual injury, Ob ([10]; safener alone 10 g/ha): 0%
- % visual injury, Ob ([10]; safener alone 20 g/ha): 0%
- % visual injury, Ob ([10]; safener alone 40 g/ha): 0%
- % visual injury, Ob [11, 23]: 0%
- % visual injury, Ob ([11]; safener alone 40 g/ha): 0%

Compound: N#CCOC(=O)c1nc(-c2ccc3cc[nH]c3c2F)c(F)c(N)c1Cl [Compound A, cyanomethyl 4-amino-3-chloro-5-fluoro-6-(7-fluoro-1H-indol-6-yl)pyridine-2-carboxylate]
- % visual injury, Ob ([1]; Compound A 20 g/ha alone): 95%
- % visual injury, Ob [2, 24]: 100%
- % visual injury, Ob ([2]; herbicide alone 40 g/ha): 100%
- % visual injury, Ob [3, 25]: 100%
- % visual injury, Ob ([4]; Compound A 20 g/ha alone): 30%
- % visual injury, Ob ([5]; Compound A 20 g/ha alone): 60%
- % visual injury, Ob ([6]; Compound A 20 g/ha alone): 30%
- % visual injury, Ob [7, 25]: 93%
- % visual injury, Ob [7, 26]: 100%
- % visual injury, Ob [7, 27]: 100%
- % visual injury, Ob [8, 25]: 95%
- % visual injury, Ob [8, 26]: 100%
- % visual injury, Ob [8, 27]: 100%
- % visual injury, Ob ([9]; Compound A 20 g/ha alone, Table 15): 15%
- % visual injury, Ob [9, 28]: 45%
- % visual injury, Ob [9, 24]: 40%
- % visual injury, Ob ([9]; herbicide alone 20 g/ha): 15% and 25%
- % visual injury, Ob ([9]; herbicide alone 40 g/ha): 45% and 40% and 23%
- % visual injury, Ob [10, 24]: 99%
- % visual injury, Ob ([10]; herbicide alone 40 g/ha): 99%
- % visual injury, Ob [11, 28]: 45%
- % visual injury, Ob ([11]; herbicide alone 40 g/ha): 45%
